Literature values in article PMC4648373 (Cancer prevention research (Philadelphia, Pa.), 2015).
Like-named read-outs stand apart in the source and are kept apart here.

Tests used:
AR signaling = conditions: cell culture models, same concentration range
[1] = rodents
[2] = healthy human subjects

Row | conversion to DOH [1] | conversion to DOH [2] | Structure (SMILES) | anti-androgen (AR) signaling, cellular growth and survival activities (AR signaling)
1 | – | – | CC1(C)Oc2cc3oc(=O)ccc3cc2C[C@@H]1O [DOH, decursinol] | much less inhibitory
2 | rapidly and extensively converted to DOH | extensive conversion | CC(C)=CC(=O)O[C@H]1Cc2cc3ccc(=O)oc3cc2OC1(C)C [D, Decursin] | identical anti-androgen signaling and anti-proliferative activities
3 | rapidly and extensively converted to DOH | extensive conversion | C/C=C(/C)C(=O)O[C@H]1Cc2cc3ccc(=O)oc3cc2OC1(C)C [DA, decursinol angelate] | identical anti-androgen signaling and anti-proliferative activities
